Tests used:
[1] = Estimated margin of safety for topical use; conditions: assuming absorbed daily dosage of 0.020 μg/kg/day; relative to no-observable-adverse-effect dose in long-term laboratory toxicity tests; conservatively estimated
From the text: When absorbed in the body, is also metabolized into [+]fluprostenol. Based on extensive studies comparing the chemical structures, ocular and dermal absorption, metabolism, potency at the biological target site, toxicological and pharmacological of PGF2α analogs and derivatives, such as bimatoprost and travoprost, the inventor believes that the compound of Formula I, in particular the 5-Heptenamide, has much more balanced and favorable profiles of safety and efficacy, especially for long term chronic application to the skin. […] Assuming an absorbed daily dosage of 0.020 μg/kg/day, due to tightness of the outmost keratinized skin layer (the stratum corneum) which causes percutaneous permeability of most drugs 100-1000 times less than through the conjunctiva (Urtti & Salminen (1993) Survey of Opthalmology 37:435-456) and the lower hydrolysis rate of the 5-Heptenamide than travoprost, the margin of safety for 5-Heptenamide is conservatively estimated to be about 71,000, which means normal use of the composition delivers a dose that is less than about one 71,000th the no-observable-adverse-effect dose in long-term laboratory toxicity tests.
Traditionally, a margin of safety of 100 (10 for interspecies extrapolation, and 10 for […]) is considered adequate. […]

[2] = Metabolic conversion to the acid form [+]fluprostenol once absorbed in the body; format: in vivo, mammal; conditions: assessed by comparison of PGF2α analogs
From the text: In particular, the 5-Heptenamide administered to a mammal can be metabolized to produce an acid form which is a single isomer of fluprostenol, [+]fluprostenol having the structure of
Since the compound of Formula I is an amide derivative of a PGF2α analog, once absorbed, hydrolysis by enzymes in the body converts the amide back to the biologically active carboxylic acid. In particular, the 5-Heptenamide can be metabolized to [+]fluprostenol which then binds to the prostaglandin receptor with high affinity and has reduced side effects such as eye irritation and hyperemia (excess blood in vessels supplying the eye).
When absorbed in the body, is also metabolized into [+]fluprostenol. Based on extensive studies comparing the chemical structures, ocular and dermal absorption, metabolism, potency at the biological target site, toxicological and pharmacological of PGF2α analogs and derivatives, such as bimatoprost and travoprost, the inventor believes that the compound of Formula I, in particular the 5-Heptenamide, has much more balanced and favorable profiles of safety and efficacy, especially for long term chronic application to the skin. […]

Compound	margin of safety [1]	conversion to [+]fluprostenol (acid form) [2]
CCNC(=O)CCC/C=C\C[C@@H]1[C@H](/C=C/[C@@H](O)COc2cccc(C(F)(F)F)c2)[C@H](O)C[C@@H]1O (relative stereo) [5-Heptenamide, 5-Heptenamide, 7-(3,5-dihydroxy-2-(3-hydroxy-4-(3-(trifluoromethyl)phenoxy)-1-butenyl)cyclopentyl)-, N-ethyl, (1R-(1alpha(Z), 2beta(1E,3R*), 3alpha, 5alpha)]	about 71,000	not as quantitatively converted to the acid form
CC(C)OC(=O)CCC/C=C\C[C@@H]1[C@@H](/C=C/[C@@H](O)COc2cccc(C(F)(F)F)c2)[C@H](O)C[C@@H]1O [travoprost, Travoprost, reference compound]		essentially completely converted

Source: patent US7879910B1, “Compositions and methods for promoting lush hair growth” (Jan Marini Skin Research, Inc., priority 2006, dated 2011)
